# From the supplement of paper PMC10307832
# Legend:
# Experiment in all cases: relative viability (nuclei count vs DMSO), 5 days (fraction); higher = more cells survive
# Dovitinib + Pictilisib = compound: CN1CCN(c2ccc3nc(-c4c(N)c5c(F)cccc5[nH]c4=O)[nH]c3c2)CC1 [Dovitinib] + CS(=O)(=O)N1CCN(Cc2cc3nc(-c4cccc5[nH]ncc45)nc(N4CCOCC4)c3s2)CC1 [Pictilisib] (partner 1 µM)
# Summary of the method: (§1)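 Lung cancer cell lines, seeded in 1536-well plates, were treated the following day by pin tool with a single drug or with five library-drug doses (not always all listed) in √10 steps on top of a fixed anchor-drug dose. Cells were fixed and nuclei stained in one step after 5 days, and nuclei were counted. Relative viability is the nuclei count for treated wells divided by that for vehicle wells, reported as medians of duplicate plates.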
# Dovitinib + Decitabine = compound: CN1CCN(c2ccc3nc(-c4c(N)c5c(F)cccc5[nH]c4=O)[nH]c3c2)CC1 [Dovitinib] + Nc1ncn([C@H]2C[C@H](O)[C@@H](CO)O2)c(=O)n1 [Decitabine] (partner 2 µM)
# Summary of the method: as §1
# Dovitinib + Crizotinib = compound: CN1CCN(c2ccc3nc(-c4c(N)c5c(F)cccc5[nH]c4=O)[nH]c3c2)CC1 [Dovitinib] + C[C@@H](Oc1cc(-c2cnn(C3CCNCC3)c2)cnc1N)c1c(Cl)ccc(F)c1Cl [Crizotinib] (partner 1 µM)
# Summary of the method: as §1
# Dovitinib + Alpelisib = compound: CN1CCN(c2ccc3nc(-c4c(N)c5c(F)cccc5[nH]c4=O)[nH]c3c2)CC1 [Dovitinib] + Cc1nc(NC(=O)N2CCC[C@H]2C(N)=O)sc1-c1ccnc(C(C)(C)C(F)(F)F)c1 [Alpelisib] (partner 2 µM)
# Summary of the method: as §1
# Dovitinib + Phenformin = compound: CN1CCN(c2ccc3nc(-c4c(N)c5c(F)cccc5[nH]c4=O)[nH]c3c2)CC1 [Dovitinib] + N=C(N)NC(=N)NCCc1ccccc1 [Phenformin] (partner 250 µM)
# Summary of the method: as §1
# Dovitinib + Lapatinib = compound: CN1CCN(c2ccc3nc(-c4c(N)c5c(F)cccc5[nH]c4=O)[nH]c3c2)CC1 [Dovitinib] + CS(=O)(=O)CCNCc1ccc(-c2ccc3ncnc(Nc4ccc(OCc5cccc(F)c5)c(Cl)c4)c3c2)o1 [Lapatinib] (partner 2 µM)
# Summary of the method: as §1
# Dovitinib + Olaparib = compound: CN1CCN(c2ccc3nc(-c4c(N)c5c(F)cccc5[nH]c4=O)[nH]c3c2)CC1 [Dovitinib] + O=C(c1cc(Cc2n[nH]c(=O)c3ccccc23)ccc1F)N1CCN(C(=O)C2CC2)CC1 [Olaparib] (partner 8 µM)
# Summary of the method: as §1
# Dovitinib + Navitoclax = compound: CN1CCN(c2ccc3nc(-c4c(N)c5c(F)cccc5[nH]c4=O)[nH]c3c2)CC1 [Dovitinib] + CC1(C)CCC(c2ccc(Cl)cc2)=C(CN2CCN(c3ccc(C(=O)NS(=O)(=O)c4ccc(N[C@H](CCN5CCOCC5)CSc5ccccc5)c(S(=O)(=O)C(F)(F)F)c4)cc3)CC2)C1 [Navitoclax] (partner 0.5 µM)
# Summary of the method: as §1
# Dovitinib + Foretinib = compound: CN1CCN(c2ccc3nc(-c4c(N)c5c(F)cccc5[nH]c4=O)[nH]c3c2)CC1 [Dovitinib] + COc1cc2c(Oc3ccc(NC(=O)C4(C(=O)Nc5ccc(F)cc5)CC4)cc3F)ccnc2cc1OCCCN1CCOCC1 [Foretinib] (partner 0.25 µM)
# Summary of the method: as §1
# Dovitinib + Linsitinib = compound: CN1CCN(c2ccc3nc(-c4c(N)c5c(F)cccc5[nH]c4=O)[nH]c3c2)CC1 [Dovitinib] + C[C@]1(O)C[C@@H](c2nc(-c3ccc4ccc(-c5ccccc5)nc4c3)c3c(N)nccn32)C1 [Linsitinib] (partner 1 µM)
# Summary of the method: as §1
# Dovitinib = compound: CN1CCN(c2ccc3nc(-c4c(N)c5c(F)cccc5[nH]c4=O)[nH]c3c2)CC1 [Dovitinib]
# Summary of the method: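 Lung cancer cell lines received five library-drug doses (not always all listed) spaced by √10, pinned on vehicle-anchored 1536-well plates after an overnight stay at 37 °C. Five days later, with no medium change, nuclei were Hoechst-stained, imaged at 4× and counted with MetaXpress. Viability is treated-well nuclei relative to vehicle-well nuclei, as a median across plates. Passing plates had control CV below 25% and at least one doubling.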
# Dovitinib + Bortezomib = compound: CN1CCN(c2ccc3nc(-c4c(N)c5c(F)cccc5[nH]c4=O)[nH]c3c2)CC1 [Dovitinib] + CC(C)C[C@H](NC(=O)[C@H](Cc1ccccc1)NC(=O)c1cnccn1)B(O)O [Bortezomib] (partner 0.002 µM)
# Summary of the method: as §1
cell line,measurement,setting,value
A549,relative viability,Dovitinib + Pictilisib; first compound 0.02 µM,0.412
same,relative viability,Dovitinib + Pictilisib; first compound 0.06325 µM,0.474
same,relative viability,Dovitinib + Pictilisib; first compound 0.2 µM,0.541
same,relative viability,Dovitinib + Pictilisib; first compound 0.6325 µM,0.488
same,relative viability,Dovitinib + Pictilisib; first compound 2 µM,0.463
same,relative viability,Dovitinib + Decitabine; first compound 0.02 µM,0.225
same,relative viability,Dovitinib + Decitabine; first compound 0.06325 µM,0.329
same,relative viability,Dovitinib + Decitabine; first compound 0.2 µM,0.248
same,relative viability,Dovitinib + Decitabine; first compound 0.6325 µM,0.292
same,relative viability,Dovitinib + Decitabine; first compound 2 µM,0.237
same,relative viability,Dovitinib + Crizotinib; first compound 0.02 µM,0.702
same,relative viability,Dovitinib + Crizotinib; first compound 0.06325 µM,0.763
same,relative viability,Dovitinib + Crizotinib; first compound 0.2 µM,0.741
same,relative viability,Dovitinib + Crizotinib; first compound 0.6325 µM,0.694
same,relative viability,Dovitinib + Crizotinib; first compound 2 µM,0.733
same,relative viability,Dovitinib + Alpelisib; first compound 0.02 µM,0.802
same,relative viability,Dovitinib + Alpelisib; first compound 0.06325 µM,0.757
same,relative viability,Dovitinib + Alpelisib; first compound 0.2 µM,0.701
same,relative viability,Dovitinib + Alpelisib; first compound 0.6325 µM,0.801
same,relative viability,Dovitinib + Alpelisib; first compound 2 µM,0.671
same,relative viability,Dovitinib + Phenformin; first compound 0.02 µM,0.145
same,relative viability,Dovitinib + Phenformin; first compound 0.06325 µM,0.174
same,relative viability,Dovitinib + Phenformin; first compound 0.2 µM,0.284
same,relative viability,Dovitinib + Phenformin; first compound 0.6325 µM,0.113
same,relative viability,Dovitinib + Phenformin; first compound 2 µM,0.201
same,relative viability,Dovitinib + Lapatinib; first compound 0.02 µM,1
same,relative viability,Dovitinib + Lapatinib; first compound 0.06325 µM,0.956
same,relative viability,Dovitinib + Lapatinib; first compound 0.2 µM,0.893
same,relative viability,Dovitinib + Lapatinib; first compound 0.6325 µM,0.817
same,relative viability,Dovitinib + Lapatinib; first compound 2 µM,0.887
same,relative viability,Dovitinib + Olaparib; first compound 0.02 µM,0.301
same,relative viability,Dovitinib + Olaparib; first compound 0.06325 µM,0.329
same,relative viability,Dovitinib + Olaparib; first compound 0.2 µM,0.353
same,relative viability,Dovitinib + Olaparib; first compound 0.6325 µM,0.458
same,relative viability,Dovitinib + Olaparib; first compound 2 µM,0.353
same,relative viability,Dovitinib + Navitoclax; first compound 0.02 µM,1.21
same,relative viability,Dovitinib + Navitoclax; first compound 0.06325 µM,1.11
same,relative viability,Dovitinib + Navitoclax; first compound 0.2 µM,1.24
same,relative viability,Dovitinib + Navitoclax; first compound 0.6325 µM,1.19
same,relative viability,Dovitinib + Navitoclax; first compound 2 µM,1.14
same,relative viability,Dovitinib + Foretinib; first compound 0.02 µM,0.943
same,relative viability,Dovitinib + Foretinib; first compound 0.06325 µM,0.919
same,relative viability,Dovitinib + Foretinib; first compound 0.2 µM,0.954
same,relative viability,Dovitinib + Foretinib; first compound 0.6325 µM,0.985
same,relative viability,Dovitinib + Foretinib; first compound 2 µM,0.975
same,relative viability,Dovitinib + Linsitinib; first compound 0.02 µM,0.654
same,relative viability,Dovitinib + Linsitinib; first compound 0.06325 µM,0.573
same,relative viability,Dovitinib + Linsitinib; first compound 0.2 µM,0.651
same,relative viability,Dovitinib + Linsitinib; first compound 0.6325 µM,0.586
same,relative viability,Dovitinib + Linsitinib; first compound 2 µM,0.632
same,relative viability,Dovitinib; 0.02 µM,0.964
same,relative viability,Dovitinib; 0.06325 µM,1.04
same,relative viability,Dovitinib; 0.2 µM,1.06
same,relative viability,Dovitinib; 0.6325 µM,0.991
same,relative viability,Dovitinib; 2 µM,0.966
EBC-1,relative viability,Dovitinib + Pictilisib; first compound 0.02 µM,0.422
same,relative viability,Dovitinib + Pictilisib; first compound 0.06325 µM,0.35
same,relative viability,Dovitinib + Pictilisib; first compound 0.2 µM,0.336
same,relative viability,Dovitinib + Pictilisib; first compound 0.6325 µM,0.342
same,relative viability,Dovitinib + Pictilisib; first compound 2 µM,0.453
same,relative viability,Dovitinib + Crizotinib; first compound 0.02 µM,0.177
same,relative viability,Dovitinib + Crizotinib; first compound 0.06325 µM,0.212
same,relative viability,Dovitinib + Crizotinib; first compound 0.2 µM,0.193
same,relative viability,Dovitinib + Crizotinib; first compound 0.6325 µM,0.162
same,relative viability,Dovitinib + Crizotinib; first compound 2 µM,0.208
same,relative viability,Dovitinib + Alpelisib; first compound 0.02 µM,0.951
same,relative viability,Dovitinib + Alpelisib; first compound 0.06325 µM,0.781
same,relative viability,Dovitinib + Alpelisib; first compound 0.2 µM,0.925
same,relative viability,Dovitinib + Alpelisib; first compound 0.6325 µM,0.73
same,relative viability,Dovitinib + Alpelisib; first compound 2 µM,0.708
same,relative viability,Dovitinib + Lapatinib; first compound 0.02 µM,0.25
same,relative viability,Dovitinib + Lapatinib; first compound 0.06325 µM,0.228
same,relative viability,Dovitinib + Lapatinib; first compound 0.2 µM,0.222
same,relative viability,Dovitinib + Lapatinib; first compound 0.6325 µM,0.194
same,relative viability,Dovitinib + Lapatinib; first compound 2 µM,0.216
same,relative viability,Dovitinib + Bortezomib; first compound 0.02 µM,0.543
same,relative viability,Dovitinib + Bortezomib; first compound 0.06325 µM,0.488
same,relative viability,Dovitinib + Bortezomib; first compound 0.2 µM,0.571
same,relative viability,Dovitinib + Bortezomib; first compound 0.6325 µM,0.564
same,relative viability,Dovitinib + Bortezomib; first compound 2 µM,0.587
same,relative viability,Dovitinib + Olaparib; first compound 0.02 µM,0.723
same,relative viability,Dovitinib + Olaparib; first compound 0.06325 µM,0.69
same,relative viability,Dovitinib + Olaparib; first compound 0.2 µM,0.664
same,relative viability,Dovitinib + Olaparib; first compound 0.6325 µM,0.712
same,relative viability,Dovitinib + Olaparib; first compound 2 µM,0.677
same,relative viability,Dovitinib + Navitoclax; first compound 0.02 µM,0.475
same,relative viability,Dovitinib + Navitoclax; first compound 0.06325 µM,0.38
same,relative viability,Dovitinib + Navitoclax; first compound 0.2 µM,0.421
same,relative viability,Dovitinib + Navitoclax; first compound 0.6325 µM,0.384
same,relative viability,Dovitinib + Navitoclax; first compound 2 µM,0.55
same,relative viability,Dovitinib + Foretinib; first compound 0.02 µM,0.105
same,relative viability,Dovitinib + Foretinib; first compound 0.06325 µM,0.0996
same,relative viability,Dovitinib + Foretinib; first compound 0.2 µM,0.103
same,relative viability,Dovitinib + Foretinib; first compound 0.6325 µM,0.0933
same,relative viability,Dovitinib + Foretinib; first compound 2 µM,0.115
same,relative viability,Dovitinib + Linsitinib; first compound 0.02 µM,0.855
same,relative viability,Dovitinib + Linsitinib; first compound 0.06325 µM,0.861
same,relative viability,Dovitinib + Linsitinib; first compound 0.2 µM,0.85
same,relative viability,Dovitinib + Linsitinib; first compound 0.6325 µM,0.884
same,relative viability,Dovitinib + Linsitinib; first compound 2 µM,0.912
same,relative viability,Dovitinib; 0.02 µM,1.08
same,relative viability,Dovitinib; 0.06325 µM,0.997
same,relative viability,Dovitinib; 0.2 µM,1.06
same,relative viability,Dovitinib; 0.6325 µM,0.975
same,relative viability,Dovitinib; 2 µM,1.06
